Values of other authors in EP0604852A1, “2,4-Substituted 5-(N-substituted-sulfamoyl) benzoylguanidines, as antiarrhythmic agents, inhibitors of the proliferation of cells and inhibitors of sodium-hydrogen exchange” (HOECHST AKTIENGESELLSCHAFT, priority 1992, dated 1994).

Test system: Rattenherzen
Conditions: isolated rat hearts; Eur. Heart J. 9 (Suppl.): 167 (1988)

| SMILES | künstlich ausgelöstes Kammerflimmern |
| --- | --- |
| CCN(c1nc(N)c(C(=O)NC(=N)N)nc1Cl)C(C)C [Ethylisopropylamilorid] | Noch potenter als Amilorid |
| N=C(N)NC(=O)c1nc(Cl)c(N)nc1N [Amilorid] | völlig unterdrückt |
